1 compound from patent US12258316B2, “Biphenyl compounds useful as muscarinic receptor antagonists” (THERAVANCE BIOPHARMA R&D IP, LLC, priority 2004, dated 2025) can be followed below.

Test [1] concerns ACh-induced bronchoconstriction. In words: Duration of bronchoprotection in guinea pig model of acetylcholine-induced bronchoconstriction. The test is classed as in vivo. The conditions noted are these: inhalation, 1.5 hours post-dose. The procedure:
Determination of Duration of Bronchoprotection in Guinea Pig Model of Acetylcholine-Induced Bronchoconstriction
Groups of six male guinea pigs (Duncan-Hartley (HsdPoc:DH) Harlan, Madison, WI) weighing between 250 and 350 g were individually identified by cage cards. Throughout the study animals were allowed access to food and water ad libitum.
Test compounds were administered via inhalation over 10 minutes in a whole-body exposure dosing chamber (R&S Molds, San Carlos, CA). The dosing chambers were arranged so that an aerosol was simultaneously delivered to 6 individual chambers from a central manifold. Guinea pigs were exposed to an aerosol of a test compound or vehicle (WFI). […] This was measured gravimetrically by comparing pre- and post-nebulization weights of the filled nebulizer.
The bronchoprotective effects of test compounds administered via inhalation were evaluated using whole body plethysmography at 1.5, 24, 48 and 72 hours post-dose.
Forty-five minutes prior to the start of the pulmonary evaluation, each guinea pig was anesthetized with an intramuscular injection of ketamine (43.75 mg/kg), xylazine (3.50 mg/kg) and acepromazine (1.05 mg/kg). […] The depth of anesthesia was monitored and adjusted if the animal responded to pinching of its paw or if the respiration rate was greater than 100 breaths/minute. […]

In test [2] the target is T1, hM3 receptor (Homo sapiens, UniProt P20309).
T1 construct: expressed in transfected cells; host or cells: CHO cells
In words: Blockade of agonist-mediated calcium release via FLIPR assay. Format: cell-based. As to conditions: CHO cells stably expressing the hM3 receptor, oxotremorine at EC90. The text has this: C. Blockade of Agonist-Mediated Calcium Release via FLIPR Assays
Muscarinic receptor subtypes (M1, M3 and M5 receptors), which couple to Gq proteins, activate the phospholipase C (PLC) pathway upon agonist binding to the receptor. As a result, activated PLC hydrolyzes phosphatyl inositol diphosphate (PIP2) to diacylglycerol (DAG) and phosphatidyl-1,4,5-triphosphate (IP3), which in turn generates calcium release from intracellular stores, i.e., endoplasmic and sarcoplasmic reticulum. […] This fluorescence event is measured in real time by the FLIPR, which detects the change in fluorescence from a monolayer of cells cloned with human M1 and M3, and chimpanzee M5 receptors. Antagonist potency can be determined by the ability of antagonists to inhibit agonist-mediated increases in intracellular calcium. […]
To determine antagonist potency, the dose-dependent stimulation of intracellular Ca^2+ release for oxotremorine is first determined so that antagonist potency can later be measured against oxotremorine stimulation at an EC90 concentration. […]
The parameters used for the FLIPR are: exposure length of 0.4 seconds, laser strength of 0.5 watts, excitation wavelength of 488 nm, and emission wavelength of 550 nm. Baseline is determined by measuring the change in fluorescence for 10 seconds prior to addition of agonist. […]

T1 sequence (P20309 whole entry): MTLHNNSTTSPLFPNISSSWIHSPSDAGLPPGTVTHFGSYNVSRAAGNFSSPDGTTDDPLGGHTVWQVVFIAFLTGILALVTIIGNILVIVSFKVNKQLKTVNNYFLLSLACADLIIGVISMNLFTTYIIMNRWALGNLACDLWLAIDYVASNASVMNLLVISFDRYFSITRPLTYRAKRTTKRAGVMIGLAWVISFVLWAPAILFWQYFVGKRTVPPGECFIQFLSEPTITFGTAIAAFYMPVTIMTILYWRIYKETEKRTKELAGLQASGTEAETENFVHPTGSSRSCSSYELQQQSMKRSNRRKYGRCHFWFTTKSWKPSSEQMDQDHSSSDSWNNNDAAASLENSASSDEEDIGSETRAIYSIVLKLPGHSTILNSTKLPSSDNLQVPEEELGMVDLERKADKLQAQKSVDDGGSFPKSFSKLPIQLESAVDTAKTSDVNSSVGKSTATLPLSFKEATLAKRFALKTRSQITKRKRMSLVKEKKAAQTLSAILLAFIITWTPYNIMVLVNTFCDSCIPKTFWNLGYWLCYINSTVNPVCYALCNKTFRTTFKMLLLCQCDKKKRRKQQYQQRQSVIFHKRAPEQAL

As for `CN(CCN1CCC(OC(=O)Nc2ccccc2-c2ccccc2)CC1)C(=O)c1ccc(CN2CCC(C(N)=O)CC2)cc1` [Example 1, Biphenyl-2-ylcarbamic Acid 1-(2-{[4-(4-Carbamoylpiperidin-1-ylmethyl)benzoyl]methylamino}ethyl)piperidin-4-yl Ester], the “PD2(50) for ACh-induced bronchoconstriction” value in test [1] is “less than 200 μg/mL”. In addition, the Ki in test [2] was under 5 nM.

Usually Ki stands for a dissociation constant, usually derived from enzyme kinetics or from competition with a known ligand.
